Tests used:
[1] = biological target: T1, Phospho-EGFR (Tyr1068) in H1975 cells (Homo sapiens, UniProt P00533, L858R/T790M); experiment: HTRF pEGFR/total EGFR in H1975 cells; type: cell-based; details: ratio pEGFR/total EGFR, compound 3 hours
T1 construct: host or cells: H1975
Method: (§1) H1975 cells (ATCC CRL-5908) were plated at 20,000 cells per well in 96 well plates and placed at 37° C. 5% CO2. Once adhered (after 24 h) cells were treated with compounds dissolved in DMSO at a final concentration of 0.1% DMSO in media. Compounds were diluted in media then added to cells for 3 hours in duplicate. Compound and media were removed from the cells, then 50 ul of HTRF lysis buffer is added (lysis buffer was diluted from 4× stock to 1× in DI water, with 1% blocking agent also added). Cells were lysed on a plate shaker (2000 rpm) for 30 minutes at room temperature. pEGFR expression was monitored using the Cisbio Phospho-EGFR (Tyri068) cellular kit (64EG1PEH). Total EGFR expression was monitored using the Cisbio Total EGFR cellular kit (64NG1PEH) as per manufacturer's instructions. Fluorescence emission was read at two different wavelengths (665 nm and 620 nm) on a PheraStar. Results were calculated as ratio of pEGFR/total EGFR and then percentage of 0 μM control.

[2] = biological target: T2, Phospho-EGFR (Tyr1068) in A431 cells (Homo sapiens, UniProt P00533); experiment: HTRF pEGFR/total EGFR in A431 cells with EGF stimulation; type: cell-based; details: ratio pEGFR/total EGFR, compound 2.5 hours then 100 ng/ml EGF 30 mins
T2 construct: endogenous in cells; host or cells: A431
T2 sequence (P00533 25-1210): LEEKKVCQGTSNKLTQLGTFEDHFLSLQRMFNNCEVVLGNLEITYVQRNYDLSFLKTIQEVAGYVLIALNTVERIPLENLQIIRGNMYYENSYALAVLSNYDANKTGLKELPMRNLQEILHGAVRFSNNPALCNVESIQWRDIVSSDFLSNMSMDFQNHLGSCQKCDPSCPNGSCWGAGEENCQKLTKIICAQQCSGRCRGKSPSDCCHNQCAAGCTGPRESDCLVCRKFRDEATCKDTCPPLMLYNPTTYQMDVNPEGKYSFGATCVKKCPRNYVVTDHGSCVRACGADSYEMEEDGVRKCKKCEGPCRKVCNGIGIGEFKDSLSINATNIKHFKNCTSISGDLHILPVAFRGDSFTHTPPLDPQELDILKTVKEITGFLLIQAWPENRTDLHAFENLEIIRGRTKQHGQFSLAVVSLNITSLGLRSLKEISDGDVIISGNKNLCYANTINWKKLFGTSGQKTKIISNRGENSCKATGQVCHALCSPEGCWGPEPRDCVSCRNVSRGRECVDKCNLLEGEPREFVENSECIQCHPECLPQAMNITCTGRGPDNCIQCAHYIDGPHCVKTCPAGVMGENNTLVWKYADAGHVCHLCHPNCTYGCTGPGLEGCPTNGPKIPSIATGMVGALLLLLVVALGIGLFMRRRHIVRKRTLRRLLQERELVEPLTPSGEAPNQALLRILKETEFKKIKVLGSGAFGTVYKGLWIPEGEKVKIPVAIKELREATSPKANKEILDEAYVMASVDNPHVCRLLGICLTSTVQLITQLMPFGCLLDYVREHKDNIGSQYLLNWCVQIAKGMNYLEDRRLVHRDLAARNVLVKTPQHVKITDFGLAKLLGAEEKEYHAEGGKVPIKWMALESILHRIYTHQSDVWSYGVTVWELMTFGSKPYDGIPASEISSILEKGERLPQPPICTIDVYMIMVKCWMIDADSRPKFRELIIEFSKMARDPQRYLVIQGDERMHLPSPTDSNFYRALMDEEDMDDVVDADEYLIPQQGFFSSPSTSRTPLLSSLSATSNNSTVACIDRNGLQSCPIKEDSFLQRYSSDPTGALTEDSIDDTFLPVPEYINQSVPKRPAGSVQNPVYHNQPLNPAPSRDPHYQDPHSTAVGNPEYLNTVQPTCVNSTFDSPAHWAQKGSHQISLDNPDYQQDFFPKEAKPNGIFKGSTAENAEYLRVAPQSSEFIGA
Method: Cells were plated at 20,000 cells per well in 96 well plates and placed at 37° C. 5% CO2. Once adhered (after 24 h) cells were treated with compounds dissolved in DMSO at a final concentration of 0.1% DMSO in media. Compounds were diluted in media then added to cells for 2.5 hours in duplicate, 100 ng/ml EGF (ThermoFisher, PHG0311) was added to all compound treated cells as well as a control for 30 mins. Compound and media were removed from the cells, then 50 ul of HTRF lysis buffer was added (lysis buffer was diluted from 4× stock to 1× in DI water, with 1% blocking agent also added). Cells were lysed on a plate shaker (2000 rpm) for 30 minutes at room temperature. pEGFR expression was monitored using the Cisbio Phospho-EGFR (Tyr1068) cellular kit (64EG1PEH). Total EGFR expression was monitored using the Cisbio Total EGFR cellular kit (64NG1PEH) as per manufacturer's instructions. Fluorescence emission was read at two different wavelengths (665 nm and 620 nm) on a PheraStar. Results were calculated as ratio of pEGFR/total EGFR and then percentage of 0 μM control.

[3] = biological target: T3, Phospho-EGFR (Tyr1068) in H1975 C797S cells (CRISPR-edited EGFR C797S) (Homo sapiens, UniProt P00533, C797S/L858R/T790M); experiment: HTRF pEGFR/total EGFR in H1975 C797S cells; type: cell-based; details: ratio pEGFR/total EGFR, compound 3 hours
T3 construct: host or cells: H1975 C797S (CRISPR-edited)
T3 sequence (P00533 25-1210 T790M/C797S/L858R): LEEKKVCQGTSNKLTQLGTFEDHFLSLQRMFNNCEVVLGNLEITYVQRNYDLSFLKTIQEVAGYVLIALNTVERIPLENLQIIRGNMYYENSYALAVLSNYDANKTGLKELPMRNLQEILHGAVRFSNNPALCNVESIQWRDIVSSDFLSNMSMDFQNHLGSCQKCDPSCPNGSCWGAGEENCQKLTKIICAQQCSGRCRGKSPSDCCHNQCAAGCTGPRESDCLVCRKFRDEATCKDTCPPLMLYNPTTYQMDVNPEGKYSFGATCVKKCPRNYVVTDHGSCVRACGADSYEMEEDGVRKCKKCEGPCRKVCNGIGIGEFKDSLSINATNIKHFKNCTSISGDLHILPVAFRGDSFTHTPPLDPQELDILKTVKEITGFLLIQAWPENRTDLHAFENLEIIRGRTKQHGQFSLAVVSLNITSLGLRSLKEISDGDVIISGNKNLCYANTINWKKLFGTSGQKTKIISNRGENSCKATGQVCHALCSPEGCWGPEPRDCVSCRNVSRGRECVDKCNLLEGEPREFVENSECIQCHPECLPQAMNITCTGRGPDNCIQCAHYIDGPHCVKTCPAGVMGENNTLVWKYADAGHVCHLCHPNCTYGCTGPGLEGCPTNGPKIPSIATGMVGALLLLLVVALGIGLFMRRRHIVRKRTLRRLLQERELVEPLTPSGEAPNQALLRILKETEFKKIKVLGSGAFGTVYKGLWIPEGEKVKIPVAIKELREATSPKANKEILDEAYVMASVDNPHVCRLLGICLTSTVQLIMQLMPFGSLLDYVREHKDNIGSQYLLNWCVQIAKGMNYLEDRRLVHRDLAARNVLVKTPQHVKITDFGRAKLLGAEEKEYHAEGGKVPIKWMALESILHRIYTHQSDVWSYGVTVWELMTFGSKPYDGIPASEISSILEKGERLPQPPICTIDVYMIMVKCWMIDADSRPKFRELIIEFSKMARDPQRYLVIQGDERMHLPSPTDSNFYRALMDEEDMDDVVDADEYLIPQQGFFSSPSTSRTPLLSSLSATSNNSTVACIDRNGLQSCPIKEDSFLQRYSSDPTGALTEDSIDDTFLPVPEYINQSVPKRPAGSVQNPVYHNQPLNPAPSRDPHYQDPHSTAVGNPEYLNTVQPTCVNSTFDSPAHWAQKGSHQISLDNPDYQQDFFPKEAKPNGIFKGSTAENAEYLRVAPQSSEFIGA
Method: as §1, with “[…]. Once” for “H1975 cells (ATCC CRL-5908) were plated at 20,000 cells per well in 96 well plates and placed at 37° C. 5% CO2. Once”, “buffer was” for “buffer is”, “Phospho-EGFR (Tyr1068)” for “Phospho-EGFR (Tyri068)”

[4] = biological target: CtermHisTag-mEGFR Wild type (Homo sapiens, UniProt P00533); experiment: biochemical
CtermHisTag-mEGFR Wild type, sequence (P00533 whole entry): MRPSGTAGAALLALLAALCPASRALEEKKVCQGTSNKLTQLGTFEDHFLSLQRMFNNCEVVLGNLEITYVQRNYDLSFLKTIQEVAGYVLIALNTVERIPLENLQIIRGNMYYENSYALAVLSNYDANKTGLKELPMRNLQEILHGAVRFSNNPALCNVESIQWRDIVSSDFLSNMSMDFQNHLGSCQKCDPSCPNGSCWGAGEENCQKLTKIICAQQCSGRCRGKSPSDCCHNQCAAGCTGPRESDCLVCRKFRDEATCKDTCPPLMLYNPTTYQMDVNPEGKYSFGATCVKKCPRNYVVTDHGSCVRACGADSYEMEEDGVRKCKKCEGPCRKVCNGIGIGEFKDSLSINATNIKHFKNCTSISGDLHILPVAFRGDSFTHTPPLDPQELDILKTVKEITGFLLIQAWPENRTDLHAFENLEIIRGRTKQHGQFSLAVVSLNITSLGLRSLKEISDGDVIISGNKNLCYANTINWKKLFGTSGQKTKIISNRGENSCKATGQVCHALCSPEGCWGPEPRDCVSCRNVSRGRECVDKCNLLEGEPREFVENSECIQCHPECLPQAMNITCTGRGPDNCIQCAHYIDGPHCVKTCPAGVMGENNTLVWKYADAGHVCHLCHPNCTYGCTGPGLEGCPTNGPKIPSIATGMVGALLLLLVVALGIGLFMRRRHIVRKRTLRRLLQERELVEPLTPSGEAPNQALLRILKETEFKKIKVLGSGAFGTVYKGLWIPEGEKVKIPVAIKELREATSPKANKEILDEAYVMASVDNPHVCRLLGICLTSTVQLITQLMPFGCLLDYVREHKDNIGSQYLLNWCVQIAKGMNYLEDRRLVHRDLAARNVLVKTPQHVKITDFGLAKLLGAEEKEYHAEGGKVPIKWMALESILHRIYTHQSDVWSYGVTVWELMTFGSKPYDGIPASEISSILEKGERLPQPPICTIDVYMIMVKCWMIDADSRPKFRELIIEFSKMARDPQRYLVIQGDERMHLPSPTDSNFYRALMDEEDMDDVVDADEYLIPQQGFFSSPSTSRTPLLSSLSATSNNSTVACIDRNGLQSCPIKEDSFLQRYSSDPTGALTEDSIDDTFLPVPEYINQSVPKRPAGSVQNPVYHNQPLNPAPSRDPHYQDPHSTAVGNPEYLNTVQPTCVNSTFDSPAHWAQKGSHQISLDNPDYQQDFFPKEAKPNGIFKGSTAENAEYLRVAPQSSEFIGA

T1 sequence (P00533 25-1210 T790M/L858R): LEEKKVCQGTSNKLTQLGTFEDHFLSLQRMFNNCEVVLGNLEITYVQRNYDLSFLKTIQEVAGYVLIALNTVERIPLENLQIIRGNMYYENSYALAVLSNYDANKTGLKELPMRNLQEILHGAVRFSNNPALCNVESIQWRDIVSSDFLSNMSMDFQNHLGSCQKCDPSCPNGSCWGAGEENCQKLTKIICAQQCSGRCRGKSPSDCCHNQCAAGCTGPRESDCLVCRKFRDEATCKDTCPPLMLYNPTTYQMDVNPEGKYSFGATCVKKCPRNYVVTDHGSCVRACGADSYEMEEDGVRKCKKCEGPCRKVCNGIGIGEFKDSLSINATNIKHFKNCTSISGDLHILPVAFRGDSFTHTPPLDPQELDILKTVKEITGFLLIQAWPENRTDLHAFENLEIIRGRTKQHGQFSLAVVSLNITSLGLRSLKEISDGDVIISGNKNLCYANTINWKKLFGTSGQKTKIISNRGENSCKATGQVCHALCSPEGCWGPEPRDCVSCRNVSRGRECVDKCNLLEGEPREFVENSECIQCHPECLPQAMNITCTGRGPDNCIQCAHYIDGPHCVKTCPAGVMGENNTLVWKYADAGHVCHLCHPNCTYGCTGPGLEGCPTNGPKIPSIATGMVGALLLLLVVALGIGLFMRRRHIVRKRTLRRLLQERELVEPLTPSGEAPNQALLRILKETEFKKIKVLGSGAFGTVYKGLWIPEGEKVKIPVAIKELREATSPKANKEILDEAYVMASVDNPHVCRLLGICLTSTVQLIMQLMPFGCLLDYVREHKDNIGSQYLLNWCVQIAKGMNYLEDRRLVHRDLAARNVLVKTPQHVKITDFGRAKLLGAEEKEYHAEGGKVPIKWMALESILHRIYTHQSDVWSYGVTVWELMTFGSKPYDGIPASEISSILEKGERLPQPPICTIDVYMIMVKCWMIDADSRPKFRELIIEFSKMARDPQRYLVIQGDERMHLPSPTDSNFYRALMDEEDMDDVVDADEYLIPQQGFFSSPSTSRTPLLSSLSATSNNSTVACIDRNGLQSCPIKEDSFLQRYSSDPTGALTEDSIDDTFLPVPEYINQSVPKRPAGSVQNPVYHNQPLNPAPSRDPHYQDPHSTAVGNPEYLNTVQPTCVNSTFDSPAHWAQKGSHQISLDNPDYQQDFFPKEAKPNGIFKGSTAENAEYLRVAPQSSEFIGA

Row | SMILES | IC50 [1] [nM] | IC50 [2] [nM] | IC50 [3] [nM] | IC50 [4] [nM]
1 | C#Cc1cc(=O)n(-c2ccccc2)c2nc(Nc3ccc(N4CCN(C5COC5)CC4)cc3)ncc12 [Example 18, 5-Ethynyl-2-({4-[4-(oxetan-3-yl)piperazin-1-yl]phenyl}amino)-8-phenylpyrido[2,3-d]pyrimidin-7-one] | < 500 | 1000 to 3000 | < 500 | < 1000
2 | C#Cc1cc(=O)n(-c2ccccc2)c2nc(Nc3cnn(C4CCN(C)CC4)c3)ncc12 [Example 19, 5-Ethynyl-2-{[1-(1-methylpiperidin-4-yl)pyrazol-4-yl]amino}-8-phenylpyrido[2,3-d]pyrimidin-7-one] | < 500 | > 3000 | 500 to 1000 | < 1000
3 | C#Cc1cc(=O)n(-c2ccccc2)c2nc(Nc3ccc(C4CCN(C)CC4)cc3)ncc12 [Example 21, 5-Ethynyl-2-{[4-(1-methylpiperidin-4-yl)phenyl]amino}-8-phenylpyrido[2,3-d]pyrimidin-7-one] | < 500 | 1000 to 3000 | < 500 | < 1000
4 | C#Cc1cc(=O)n(-c2ccccc2)c2nc(Nc3ccc(C4CCNCC4)cc3)ncc12 [Example 22, 5-Ethynyl-8-phenyl-2-{[4-(piperidin-4-yl)phenyl]amino}pyrido[2,3-d]pyrimidin-7-one] | < 500 | > 3000 | < 500 | < 1000
5 | C#Cc1cc(=O)n(-c2ccccc2)c2nc(Nc3ccc(N4CCN(C)CC4)c(CC)c3)ncc12 [Example 24, 2-{[3-Ethyl-4-(4-methylpiperazin-1-yl)phenyl]amino}-5-ethynyl-8-phenylpyrido[2,3-d]pyrimidin-7-one] | < 500 | > 3000 | < 500 | < 1000
6 | C#Cc1cc(=O)n(-c2ccccc2)c2nc(Nc3cnn(C)c3)ncc12 [Example 25, 5-Ethynyl-2-[(1-methylpyrazol-4-yl)amino]-8-phenylpyrido[2,3-d]pyrimidin-7-one] | 1000 to 3000 | > 3000 | 1000 to 3000 | < 1000
7 | C#Cc1cc(=O)n(-c2ccccc2)c2nc(Nc3ccc4c(c3)CCNCC4)ncc12 [Example 26, 5-ethynyl-8-phenyl-2-(2,3,4,5-tetrahydro-1H-3-benzazepin-7-ylamino)pyrido [2,3-d]pyrimidin-7-one] | < 500 | 1000 to 3000 | < 500 | < 1000
8 | C#Cc1cc(=O)n(-c2ccccc2)c2nc(Nc3ccc(N4CCC(N5CC(F)(CO)C5)CC4)cc3)ncc12 [Example 30, 5-Ethynyl-2-[(4-{4-[3-fluoro-3-(hydroxymethyl)azetidin-1-yl]piperidin-1-yl}phenyl)amino]-8-phenylpyrido[2,3-d]pyrimidin-7-one] | < 500 | > 3000 | < 500 | < 1000
9 | C#Cc1cc(=O)n(-c2ccccc2)c2nc(Nc3ccc(N4CCN(C)CC4)c(CO)c3)ncc12 [Example 31, 5-Ethynyl-2-{[3-(hydroxymethyl)-4-(4-methylpiperazin-1-yl)phenyl]amino}-8-phenylpyrido[2,3-d]pyrimidin-7-one] | < 500 | > 3000 | 500 to 1000 | < 1000
10 | C#Cc1cc(=O)n(-c2ccccc2)c2nc(Nc3ccc(N(C)CCN(C)C)c(C)c3)ncc12 [Example 32, 2-[(4-{[2-(Dimethylamino)ethyl](methyl)amino}-3-methylphenyl)amino]-5-ethynyl-8-phenylpyrido[2,3-d]pyrimidin-7-one] | < 500 | > 3000 | < 500 | < 1000
11 | C#Cc1cc(=O)n(-c2ccccc2)c2nc(Nc3ccc(N(C)CCN(C)C)cc3)ncc12 [Example 34, 2-((4-((2-(Dimethylamino)ethyl)(methyl)amino)phenyl)amino)-5-ethynyl-8-phenylpyrido[2,3-d]pyrimidin-7(8H)-one] | < 500 | > 3000 | > 3000 | < 1000
12 | C#Cc1cc(=O)n(-c2ccccc2)c2nc(Nc3ccc(N(C)C(=O)CCOC)cc3OC)ncc12 [Example 36, N-(4-((5-Ethynyl-7-oxo-8-phenyl-7,8-dihydropyrido[2,3-d]pyrimidin-2-yl)amino)-3-methoxyphenyl)-3-methoxy-N-methylpropanamide] | 1000 to 3000 | > 3000 | 1000 to 3000 | 1000 to 10000
13 | C#Cc1cc(=O)n(-c2ccccc2)c2nc(Nc3ccc(N4CCNC5(CC5)C4)cc3)ncc12 [Example 38, 2-[(4-{4,7-Diazaspiro[2.5]octan-7-yl}phenyl)amino]-5-ethynyl-8-phenylpyrido[2,3-d]pyrimidin-7-one] | < 500 | > 3000 | < 500 | < 1000

More lines, now with the values ahead:

Row | IC50 [1] [nM] | IC50 [2] [nM] | IC50 [3] [nM] | IC50 [4] [nM] | SMILES
14 | < 500 | 1000 to 3000 | < 500 | < 1000 | C#Cc1cc(=O)n(-c2ccccc2)c2nc(Nc3ccc(N4CCCNCC4)cc3)ncc12 [Example 20, 2-{[4-(1,4-Diazepan-1-yl)phenyl]amino}-5-ethynyl-8-phenylpyrido[2,3-d]pyrimidin-7-one]
15 | < 500 | 1000 to 3000 | < 500 | < 1000 | C#Cc1cc(=O)n(-c2ccccc2)c2nc(Nc3ccc(N4CCC(N5CCN(C)CC5)CC4)cc3)ncc12 [Example 23, 5-Ethynyl-2-({4-[4-(4-methylpiperazin-1-yl)piperidin-1-yl]phenyl}amino)-8-phenylpyrido[2,3-d]pyrimidin-7-one]
16 | < 500 | 1000 to 3000 | < 500 | < 1000 | C#Cc1cc(=O)n(-c2ccccc2)c2nc(Nc3ccc(N4CCNC(C)C4)cc3)ncc12 (stereo not drawn) [Example 27, 5-Ethynyl-2-{[4-(3-methylpiperazin-1-yl)phenyl]amino}-8-phenylpyrido[2,3-d]pyrimidin-7-one]
17 | < 500 | 1000 to 3000 | < 500 | < 1000 | C#Cc1cc(=O)n(-c2ccccc2)c2nc(Nc3ccc(N4CCC(N5CC(CO)C5)CC4)cc3)ncc12 [Example 28]
18 | < 500 | > 3000 | < 500 | < 1000 | C#Cc1cc(=O)n(-c2ccccc2)c2nc(Nc3ccc(N4CCC(N5CC(N(C)C)C5)CC4)cc3)ncc12 [Example 29, 2-[(4-{4-[3-(Dimethylamino)azetidin-1-yl]piperidin-1-yl}phenyl)amino]-5-ethynyl-8-phenylpyrido[2,3-d]pyrimidin-7-one]
19 | < 500 | 1000 to 3000 | < 500 | < 1000 | C#Cc1cc(=O)n(-c2ccccc2)c2nc(Nc3ccc(N4CCC(N(C)C)CC4)cc3)ncc12 [Example 33, 2-({4-[4-(Dimethylamino)piperidin-1-yl]phenyl}amino)-5-ethynyl-8-phenylpyrido[2,3-d]pyrimidin-7-one]
20 | < 500 | 1000 to 3000 | 1000 to 3000 | < 1000 | C#Cc1cc(=O)n(-c2ccccc2)c2nc(Nc3ccc(N4CCN(C)CC4)cc3)ncc12 [Example 37, 5-Ethynyl-2-((4-(4-methylpiperazin-1-yl)phenyl)amino)-8-phenylpyrido[2,3-d]pyrimidin-7(8H)-one]
21 | < 500 | 1000 to 3000 | < 500 | < 1000 | C#Cc1cc(=O)n(-c2ccccc2)c2nc(Nc3ccc(N4CCC(N5CC(COC)C5)CC4)cc3)ncc12 [Example 39, 5-Ethynyl-2-[(4-{4-[3-(methoxymethyl)azetidin-1-yl]piperidin-1-yl}phenyl)amino]-8-phenylpyrido[2,3-d]pyrimidin-7-one]
